Calls of active or inactive are those of the source. The rule behind the calls is not given here.
Tested on: rodent lifetime carcinogenesis bioassay, tumor incidence TD50
Test: carcinogenic potency in animals, long-term in vivo studies, CPDB compilation (AID 1745844)

## [CH3][Hg][Cl]
mouse, strain B6C3F1, females, in feed, site: kidney, lesion: renal-cell adenoma, dosed 104 weeks, study length 104 weeks
  TD50: 65.8 mg/kg/day
mouse, strain B6C3F1, males, in feed, site: kidney, lesion: renal-cell adenoma, dosed 104 weeks, study length 104 weeks
  TD50: 9.83 mg/kg/day
mouse, strain B6C3F1, males, in feed, site: kidney, lesion: renal-cell carcinoma, dosed 104 weeks, study length 104 weeks
  TD50: 4.28 mg/kg/day
mouse, strain B6C3F1, males, in feed, site: kidney, lesion: several types, types named in the paper, dosed 104 weeks, study length 104 weeks
  TD50: 3.19 mg/kg/day
mouse, strain Charles River CD1, females, in drinking water, site: any site (literature study), lesion: malignant tumor, dosed 143 weeks, study length 151 weeks
  carcinogen call: negative (inactive)
mouse, strain Charles River CD1, females, in drinking water, site: any site (literature study), lesion: several types, types named in the paper, dosed 143 weeks, study length 151 weeks
  TD50: 2.13 mg/kg/day (inactive)
mouse, strain Charles River CD1, females, in drinking water, site: lung, lesion: one or several types, types not named, dosed 143 weeks, study length 151 weeks
  carcinogen call: negative (inactive)
mouse, strain Charles River CD1, males, in drinking water, site: any site (literature study), lesion: malignant tumor, dosed 135 weeks, study length 159 weeks
  TD50: 9.64 mg/kg/day (inactive)
mouse, strain Charles River CD1, males, in drinking water, site: any site (literature study), lesion: several types, types named in the paper, dosed 135 weeks, study length 159 weeks
  TD50: 5.63 mg/kg/day (inactive)
mouse, strain Charles River CD1, males, in drinking water, site: lung, lesion: one or several types, types not named, dosed 135 weeks, study length 159 weeks
  carcinogen call: negative (inactive)
mouse, strain ICR, females, in feed, site: kidney, lesion: adenoma, dosed 80 weeks, study length 80 weeks
  carcinogen call: negative (inactive)
mouse, strain ICR, females, in feed, site: kidney, lesion: one or several types, types not named, dosed 52 weeks, study length 52 weeks
  carcinogen call: negative (inactive)
mouse, strain ICR, females, in feed, site: kidney, lesion: one or several types, types not named, dosed 78 weeks, study length 78 weeks
  carcinogen call: negative (inactive)
mouse, strain ICR, females, in feed, site: kidney, lesion: one or several types, types not named, dosed 104 weeks, study length 104 weeks
  carcinogen call: negative (inactive)
mouse, strain ICR, females, in feed, site: liver, lesion: hemangioma, dosed 80 weeks, study length 80 weeks
  TD50: 26.1 mg/kg/day (inactive)
mouse, strain ICR, females, in feed, site: liver, lesion: hepatocellular adenoma, dosed 80 weeks, study length 80 weeks
  carcinogen call: negative (inactive)
mouse, strain ICR, females, in feed, site: liver, lesion: hepatocellular carcinoma, dosed 80 weeks, study length 80 weeks
  carcinogen call: negative (inactive)
mouse, strain ICR, females, in feed, site: lung, lesion: adenocarcinoma, dosed 80 weeks, study length 80 weeks
  TD50: 11.6 mg/kg/day (inactive)
mouse, strain ICR, females, in feed, site: lung, lesion: adenoma, dosed 80 weeks, study length 80 weeks
  carcinogen call: negative (inactive)
mouse, strain ICR, males, in feed, site: kidney, lesion: adenocarcinoma, dosed 78 weeks, study length 78 weeks
  TD50: 3.2 mg/kg/day
mouse, strain ICR, males, in feed, site: kidney, lesion: adenocarcinoma, dosed 80 weeks, study length 80 weeks
  TD50: 1.48 mg/kg/day
mouse, strain ICR, males, in feed, site: kidney, lesion: adenocarcinoma, dosed 102 weeks, study length 104 weeks
  TD50: 1.88 mg/kg/day
mouse, strain ICR, males, in feed, site: kidney, lesion: adenoma, dosed 80 weeks, study length 80 weeks
  TD50: 24.1 mg/kg/day
mouse, strain ICR, males, in feed, site: kidney, lesion: several types, types named in the paper, dosed 78 weeks, study length 78 weeks
  TD50: 0.896 mg/kg/day
mouse, strain ICR, males, in feed, site: kidney, lesion: several types, types named in the paper, dosed 80 weeks, study length 80 weeks
  TD50: 1.36 mg/kg/day
mouse, strain ICR, males, in feed, site: kidney, lesion: several types, types named in the paper, dosed 102 weeks, study length 104 weeks
  TD50: 1.69 mg/kg/day
mouse, strain ICR, males, in feed, site: lung, lesion: adenocarcinoma, dosed 80 weeks, study length 80 weeks
  TD50: 5.1 mg/kg/day
rat, strain Sprague-Dawley, females, in feed, site: kidney, lesion: adenoma, dosed 130 weeks, study length 130 weeks
  TD50: 15.7 mg/kg/day (inactive)
rat, strain Sprague-Dawley, females, in feed, site: liver, lesion: one or several types, types not named, dosed 52 weeks, study length 52 weeks
  carcinogen call: negative (inactive)
rat, strain Sprague-Dawley, females, in feed, site: liver, lesion: one or several types, types not named, dosed 78 weeks, study length 78 weeks
  carcinogen call: negative (inactive)
rat, strain Sprague-Dawley, females, in feed, site: liver, lesion: one or several types, types not named, dosed 130 weeks, study length 130 weeks
  carcinogen call: negative (inactive)
rat, strain Sprague-Dawley, males, in feed, site: liver, lesion: one or several types, types not named, dosed 52 weeks, study length 52 weeks
  carcinogen call: negative (inactive)
rat, strain Sprague-Dawley, males, in feed, site: liver, lesion: one or several types, types not named, dosed 78 weeks, study length 78 weeks
  carcinogen call: negative (inactive)
rat, strain Sprague-Dawley, males, in feed, site: liver, lesion: one or several types, types not named, dosed 130 weeks, study length 130 weeks
  carcinogen call: negative (inactive)
rat, strain Wistar, females, in feed, site: liver, lesion: one or several types, types not named, dosed 104 weeks, study length 104 weeks
  carcinogen call: negative (inactive)
rat, strain Wistar, males, in feed, site: liver, lesion: one or several types, types not named, dosed 104 weeks, study length 104 weeks
  carcinogen call: negative (inactive)
